Data from US20060078573A1, “Methods of modifying crystal habit” (priority 2004, published 2006).

What was measured:
Assay type in all cases: physicochemical
[1] = BET surface area measurement (nitrogen adsorption at 77 K); settings: nitrogen adsorbate, PSA:GF ratio based on mass charged to crystallizer
Procedure: A Quantachrome Autosorb-IC (Boynton Beach, Fla.) was used to measure surface areas of the samples at 77 K. A known amount of powder (typically 500 mg) was loaded into a Quantachrome powder cell and outgassed for about 1 hr. Nitrogen was used as the adsorbate, and the equations derived by Brunauer, Emmett, and Teller (BET) were used by the software provided with the instrument to calculate the specific surface areas.

[2] = Powder flow properties: bulk density, tapped density, compressibility (modified USP procedure); settings: for Percent Compressibility: computed from bulk density and tapped density (equation 3)
Procedure: Bulk densities of selected samples were measured using a modified USP procedure. A mass of sample (M), typically 0.5 g, was passed through a No. 18 test sieve (ASTM USA Standard Test Sieve, Fischer Scientific) into a tared 10 mL graduated cylinder. The powder was carefully leveled and the unsettled apparent volume (Vo) was read to the nearest 0.05 mL. The bulk density (ρb) was then calculated using equation 1: [formula] Each bulk density measurement was performed in triplicate, and the average value was reported. Tapped densities of selected samples were also obtained using a modified USP procedure. After the bulk density had been determined from the procedure described above, the graduate cylinder was mechanically tapped by raising the cylinder and allowing it to drop under its own weight using an apparatus that provided a fixed drop height of 14±2 mm. The nominal tap rate was 60 drops per minute. The cylinder was initially tapped 500 times and the tapped volume (VT) was read to the nearest 0.05 mL. The procedure was then repeated, in increments of 500 taps, until the difference between succeeding measurements was less than 2%. The tapped density (ρt) was then calculated using equation 2: [formula] Each tapped density measurement was performed in triplicate, and the average values for each sample is reported. Powder compressibility was computed from the bulk density and tapped density using equation 3: [formula] Determination of Griseofulvin Content in the Powder Samples
Powder flow properties, as represented by the bulk density, tapped density, and percent compressibility, were determined for selected samples and are shown in Table 2.0, in which GF is griseofluvin and the PSA:GF ratio was based on the original mass charged to the crystallizer. Absent values from the table indicate inadequate sample volume for the measurement technique.

[3] = Short term stability study at ICH conditions, characterised by XRPD
Procedure: A short term stability study was conducted at two International Conference on Harmonization (ICH) stability conditions, i.e. 25° C./60% relative humidity and 40° C./75% relative humidity. A thin layer of powder was placed in a 20 mL capped glass scintillation vial, and the vials were placed in a sealed desicator that was set to either 25 or 40° C., and to the desired relative humidity over the appropriate saturated salt solution^32. Relative humidities of 60% and 75% were obtained using sodium bromide or sodium chloride, respectively. After initial storage (4 days), the samples were removed and characterized by XRPD. The samples were then returned to appropriate desicator and stored for another 19 days with the caps removed. Final sample characterization was by SEM and XRPD.

COC1=CC(=O)C[C@@H](C)[C@]12Oc1c(Cl)c(OC)cc(OC)c1C2=O [Bulk GF, griseofulvin]
BET-Surface Area [1]: 2.98 m^2/g | Bulk Density ([2]; average of triplicate): 0.2 ± 0.02 g/mL | Tapped Density ([2]; average of triplicate, tapped in increments of 500 taps): 0.4 ± 0.02 g/mL | Percent Compressibility [2]: 49 +/− 3% | Percent Compressibility ([2]; listed as bulk griseofulvin): 49±3% | XRPD diffraction pattern after storage (phase change) ([3]; stored for 23 days at 25° C./60% RH): No new peaks | XRPD diffraction pattern after storage (phase change) ([3]; stored for 23 days at 40° C./75% RH): No new peaks
